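These data come from cells grown in 96-well plates and exposed to compound for 48 hours at five concentrations. The concentration for 50% growth inhibition is given as GI50. Definition used: TGI = concentration required for complete inhibition of growth.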
Key:
Experiment in all cases: growth of human tumour cells (NCI), 48 h
786-0 renal = system: 786-0 renal
HCT-15 colon = system: HCT-15 colon
HOP-62 NSCLC = system: HOP-62 NSCLC
K-562 leukemia = system: K-562 leukemia
LOX IMVI melanoma = system: LOX IMVI melanoma
NCI-H226 lung = system: NCI-H226 lung
NCI-H460 lung = system: NCI-H460 lung
OVCAR-8 ovarian = system: OVCAR-8 ovarian
SK-MEL-2 melanoma = system: SK-MEL-2 melanoma
SW-620 colon = system: SW-620 colon

Compound	GI50 (786-0 renal) [µM]	TGI (786-0 renal) [µM]	GI50 (HCT-15 colon) [µM]	TGI (HCT-15 colon) [µM]	GI50 (HOP-62 NSCLC) [µM]	TGI (HOP-62 NSCLC) [µM]	GI50 (K-562 leukemia) [µM]	TGI (K-562 leukemia) [µM]	GI50 (LOX IMVI melanoma) [µM]	TGI (LOX IMVI melanoma) [µM]	GI50 (NCI-H226 lung) [µM]	TGI (NCI-H226 lung) [µM]	GI50 (NCI-H460 lung) [µM]	TGI (NCI-H460 lung) [µM]	GI50 (OVCAR-8 ovarian) [µM]	TGI (OVCAR-8 ovarian) [µM]	GI50 (SK-MEL-2 melanoma) [µM]	TGI (SK-MEL-2 melanoma) [µM]	GI50 (SW-620 colon) [µM]	TGI (SW-620 colon) [µM]
NC(=O)c1cc(Cl)ccc1NC(=O)c1ccccc1-c1ccccc1	0.479	17.9	0.55	> 100	0.902	> 100	0.416	> 100	0.806	43	18.4	> 100	0.453	28.7	2.81	> 100	0.288	0.799	0.412	> 100
NNC(=O)CCC(=O)Nc1ccc(Cl)cc1Cl	–	> 100	–	> 100	–	> 100	–	> 100	–	> 100	–	> 100	–	> 100	–	> 100	–	> 100	–	> 100
CC1Cc2c(N)nc(N3CCOCC3)nc2NC1=O (centres undefined)	–	> 100	–	> 100	–	> 100	–	> 100	–	> 100	–	> 100	–	> 100	–	> 100	–	> 100	–	> 100
CN(C)c1ccc2cc(-c3cc4c(oc3=O)-c3ccccc3OC4O)c(=O)oc2c1 (centres undefined)	8.33	> 25	3.81	8.9	3.88	11.6	5.2	> 25	3.52	7.3	3.28	7.08	4.14	14.3	3.2	15.7	3.03	7.53	15.6	> 25
S=P(c1ccccc1)(c1ccccc1)C1(C2(P(=S)(c3ccccc3)c3ccccc3)CC2)CC1	–	> 100	–	> 100	–	> 100	–	> 100	–	> 100	–	> 100	–	> 100	–	> 100	–	> 100	–	> 100
CCOC(=O)C#Cc1ccc([N+](=O)[O-])cc1	–	3.41	–	4.33	–	11.3	–	11.9	–	2.77	–	7.78	–	29.2	–	10.5	–	11.6	–	7.43
Cc1cccc2c1O/C(=C\c1ncc([N+](=O)[O-])n1C)C2=O	0.28	0.969	0.0874	0.318	0.599	1.97	0.304	3.18	0.092	0.387	1.08	4.29	0.132	0.581	0.166	–	0.246	0.584	0.0888	0.537
COc1cc(C)[nH]c(=O)c1CN1CCc2c(Cl)cc([C@H](OC)C3COC3)c(Cl)c2C1=O	> 100	> 100	> 100	> 100	> 100	> 100	> 100	> 100	> 100	> 100	> 100	> 100	> 100	> 100	> 100	> 100	> 100	> 100	> 100	> 100
O=c1ccccc(-c2ccc(-c3ccco3)cc2)c1O	0.834	14.7	0.373	41.2	0.694	12.9	0.603	> 100	0.472	11.2	2.31	23	0.408	10.8	0.507	29	10.5	44.2	0.438	29.1
CCN(CC)C(=O)CNC(=O)OC(C)(C)C	–	> 100	–	> 100	–	> 100	–	> 100	–	> 100	–	> 100	–	> 100	–	> 100	–	> 100	–	> 100
C#Cc1cccc(Nc2ncnc3ccc(-c4cnc(Cl)c(NS(C)(=O)=O)c4)cc23)c1	0.343	4.55	0.295	1.97	0.292	10.7	0.682	> 100	0.281	1.8	0.564	4.3	0.572	11.7	0.825	> 33.5	0.296	1.62	0.467	5.65
